Laboratory results from the supplement of paper PMC10307832.

Tests used:
Test in all cases: relative viability (nuclei count vs DMSO), 5 days (fraction); higher = more cells survive
Ruxolitinib + Alpelisib = compound: N#CC[C@H](C1CCCC1)n1cc(-c2ncnc3[nH]ccc23)cn1 [Ruxolitinib] + Cc1nc(NC(=O)N2CCC[C@H]2C(N)=O)sc1-c1ccnc(C(C)(C)C(F)(F)F)c1 [Alpelisib] (partner 2 µM)
How it was run: (§1)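 Lung cancer cell lines were seeded in 1536-well plates and dosed by pin tool the next day, with either a single drug or a fixed anchor-drug dose combined with five library-drug doses (not always all listed) spaced in √10 steps. Five days later, one step fixed the cells and stained their nuclei (final 0.05% Triton X-100, 1% formaldehyde, 1 ug/ml Hoechst), and nuclei were counted on 4× images. Relative viability is the nuclei count in treated wells divided by the count in vehicle wells, and each value is the median of duplicate plates.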

Ruxolitinib + Decitabine = compound: N#CC[C@H](C1CCCC1)n1cc(-c2ncnc3[nH]ccc23)cn1 [Ruxolitinib] + Nc1ncn([C@H]2C[C@H](O)[C@@H](CO)O2)c(=O)n1 [Decitabine] (partner 2 µM)
How it was run: as §1

Ruxolitinib + Vorinostat = compound: N#CC[C@H](C1CCCC1)n1cc(-c2ncnc3[nH]ccc23)cn1 [Ruxolitinib] + O=C(CCCCCCC(=O)Nc1ccccc1)NO [Vorinostat] (partner 1 µM)
How it was run: as §1

Vismodegib + Dasatinib = compound: CS(=O)(=O)c1ccc(C(=O)Nc2ccc(Cl)c(-c3ccccn3)c2)c(Cl)c1 [Vismodegib] + Cc1nc(Nc2ncc(C(=O)Nc3c(C)cccc3Cl)s2)cc(N2CCN(CCO)CC2)n1 [Dasatinib] (partner 0.075 µM)
How it was run: as §1

Work on UMC-11 yielded a relative viability (Ruxolitinib + Alpelisib; first compound 0.08 µM) of 0.869, a relative viability (Ruxolitinib + Alpelisib; first compound 0.253 µM) of 1.02 and a relative viability (Ruxolitinib + Alpelisib; first compound 0.8 µM) of 1.06. It also gave a relative viability (Ruxolitinib + Alpelisib; first compound 2.53 µM) of 1.12, a relative viability (Ruxolitinib + Alpelisib; first compound 8 µM) of 0.938 and a relative viability (Ruxolitinib + Decitabine; first compound 0.08 µM) of 0.745. The relative viability (Ruxolitinib + Decitabine; first compound 0.253 µM) was 0.62, the relative viability (Ruxolitinib + Decitabine; first compound 0.8 µM) was 0.797 and the relative viability (Ruxolitinib + Decitabine; first compound 2.53 µM) was 0.433. For the same cell line, the relative viability (Ruxolitinib + Decitabine; first compound 8 µM) was 0.627, the relative viability (Ruxolitinib + Vorinostat; first compound 0.08 µM) was 0.362 and the relative viability (Ruxolitinib + Vorinostat; first compound 0.253 µM) was 0.384. It also gave a relative viability (Ruxolitinib + Vorinostat; first compound 0.8 µM) of 0.452, a relative viability (Ruxolitinib + Vorinostat; first compound 2.53 µM) of 0.48 and a relative viability (Ruxolitinib + Vorinostat; first compound 8 µM) of 0.386. It also gave a relative viability (Vismodegib + Dasatinib; first compound 0.08 µM) of 0.434, a relative viability (Vismodegib + Dasatinib; first compound 0.253 µM) of 0.471 and a relative viability (Vismodegib + Dasatinib; first compound 0.8 µM) of 0.423. For the same cell line, the relative viability (Vismodegib + Dasatinib; first compound 2.53 µM) was 0.444 and the relative viability (Vismodegib + Dasatinib; first compound 8 µM) was 0.418.
